Reference: US20070208087A1, “Compounds, compositions and methods for the treatment of inflammatory diseases” (priority 2001, published 2007)
Several values for one entry are separate records, joined by “and”; a condition that tells them apart may be missing. Equal values may be shown once. Read-outs that look alike come from different tables or passages of the source.

Columns and labels:
Type in all cases: cell-based
[1] = tested on: EOC 13.31 microglia cells; assay: Inhibition of NO release from microglia following 24 hours pretreatment (Example 10); conditions: for inhibition at 50 µM: Microglia
How it was run: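 Confluent EOC 13.31 cells pretreated 24 hours with 50 μM compound (from 10 mM DMSO stock), then stimulated with 10 μg/ml LPS plus 10 ng/ml IFNγ without media change. After a further 48 hours, NO release was measured by Griess Reaction.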

microglia = assay: Ranking of NO release inhibition (Example 12); conditions: Microglia, ranking table
Description: The bis- and tris-dihydroxyaryl compounds were ranked in order of effectiveness for the inhibition of NO release as set out in Table 8.

Microglial cells = assay: Dose response inhibition of NO release from microglia, 0.75-200 μM (Example 8)
How it was run: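 Microglia plated at 1×10^5 cells/ml, stimulated with LPS/IFNγ and treated at 0.75, 1.56, 3.125, 6.25, 12.5, 25, 50, 100 and 200 μM. NO release measured after 48 hours by Griess reaction.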

[2] = dose 0.75 μM, 48 hours, single replicates
[3] = dose 1.56 μM, 48 hours, single replicates
[4] = dose 3.125 μM, 48 hours, single replicates
[5] = dose 6.25 μM, 48 hours, single replicates
[6] = dose 12.5 μM, 48 hours, single replicates
[7] = dose 25 μM, 48 hours, single replicates
[8] = dose 50 μM, 48 hours, single replicates
[9] = dose 100 μM, 48 hours, single replicates

O=C(NCc1ccc(O)c(O)c1)C(=Cc1ccc(O)c(O)c1)NC(=O)c1ccc(O)c(O)c1 [Compound 21, α-(3,4-dihydroxybenzamido)-3,4-dihydroxycinnamic acid 3,4-dihydroxybenzyl amide]
% inhibition ([1]; 50 uM pretreatment 24 hours, then LPS/IFNγ 48 hours, single replicates): 82.29% and 84.17% | inhibition at 50 µM ([1]; 50 uM pretreatment 24 hours, then LPS/IFNγ 48 hours, read-out: Avg % Inhibition): 83.9% | inhibition at 50 µM ([1]; 50 uM pretreatment 24 hours, then LPS/IFNγ 48 hours, single replicates, read-out: % inhibition): 85.2% | inhibition at 50 µM ([1]; 50 μM pretreatment, read-out: inhibition of NO release following pretreatment): > 75% | inhibition at 50 µM (microglia): 18% | inhibition at 0.75 µM (Microglial cells; Microglia, 48 h, dose 0.75 μM): -15.5% | inhibition at 1.56 µM (Microglial cells; Microglia, 48 h, dose 1.56 μM): -6.58% | inhibition at 3.125 µM (Microglial cells; Microglia, 48 h, dose 3.125 μM): -6.05% | inhibition at 6.25 µM (Microglial cells; Microglia, 48 h, dose 6.25 μM, 48 hours, read-out: Avg % Inhibition): -1.84% | inhibition at 12.5 µM (Microglial cells; Microglia, 48 h, dose 12.5 μM, 48 hours, read-out: Avg % Inhibition): 5% | inhibition at 25 µM (Microglial cells; Microglia, 48 h, dose 25 μM, 48 hours, read-out: Avg % Inhibition): 2.9% | inhibition at 50 µM (Microglial cells; Microglia, 48 h, dose 50 μM, 48 hours, read-out: Avg % Inhibition): 13.7% | inhibition at 50 µM (Microglial cells; Microglia, 48 h, dose 50 μM, 48 hours, single replicates, read-out: % inhibition): 16.3% | inhibition at 100 µM (Microglial cells; Microglia, 48 h, dose 100 μM, 48 hours, read-out: Avg % Inhibition): 33.7% | inhibition at 100 µM (Microglial cells; Microglia, 48 h, dose 100 μM, 48 hours, single replicates, read-out: % inhibition): 33.7% | inhibition at 200 µM (Microglial cells; Microglia, 48 h, dose 200 μM, 48 hours, read-out: Avg % Inhibition): 69% | inhibition at 200 µM (Microglial cells; Microglia, 48 h, dose 200 μM, 48 hours, single replicates, read-out: % inhibition): 67.6% | μM NO release Avg (Microglial cells; dose 0.75 μM, 48 hours): 22.865 µM | % inhibition (Microglial cells; [2]): −16.05% and −17.63% and −12.89% | OD values (printed under head μM NO release) (Microglial cells; [2]): 0.195 and 0.199 and 0.201 | μM NO release (Microglial cells; [2]): 22.344 µM and 22.969 µM and 23.281 µM | μM NO release Avg (Microglial cells; dose 1.56 μM, 48 hours): 21.094 µM | % inhibition (Microglial cells; [3]): −8.16% and −9.74% and −1.84% | OD values (printed under head μM NO release) (Microglial cells; [3]): 0.181 and 0.189 and 0.191 | μM NO release (Microglial cells; [3]): 20.156 µM and 21.406 µM and 21.719 µM | μM NO release Avg (Microglial cells; dose 3.125 μM, 48 hours): 20.990 µM | % inhibition (Microglial cells; [4]): −4.21% and −8.16% and −5.79% | OD values (printed under head μM NO release) (Microglial cells; [4]): 0.186 and 0.184 and 0.189 | μM NO release (Microglial cells; [4]): 20.938 µM and 20.625 µM and 21.406 µM | μM NO release Avg (Microglial cells; dose 6.25 μM, 48 hours): 20.156 µM | % inhibition (Microglial cells; [5]): 2.89% and −3.42% | OD values (printed under head μM NO release) (Microglial cells; [5]): 0.183 and 0.175 and 0.185 | μM NO release (Microglial cells; [5]): 20.469 µM and 19.219 µM and 20.781 µM | μM NO release Avg (Microglial cells; dose 12.5 μM, 48 hours): 18.802 µM | % inhibition (Microglial cells; [6]): 5.26% and −4.21% and 13.95% | OD values (printed under head μM NO release) (Microglial cells; [6]): 0.161 and 0.172 and 0.184 | μM NO release (Microglial cells; [6]): 17.031 µM and 18.750 µM and 20.625 µM | μM NO release Avg (Microglial cells; dose 25 μM, 48 hours): 19.219 µM | % inhibition (Microglial cells; [7]): 7.63% and 1.32% and −0.26% | OD values (printed under head μM NO release) (Microglial cells; [7]): 0.179 and 0.169 and 0.177 | μM NO release (Microglial cells; [7]): 19.844 µM and 18.281 µM and 19.531 µM | μM NO release Avg (Microglial cells; dose 50 μM, 48 hours): 17.083 µM | % inhibition (Microglial cells; [8]): 10.79% and 13.95% | OD values (printed under head μM NO release) (Microglial cells; [8]): 0.161 and 0.158 and 0.165 | μM NO release (Microglial cells; [8]): 17.031 µM and 16.563 µM and 17.656 µM | μM NO release Avg (Microglial cells; dose 100 μM, 48 hours): 13.125 µM | OD values (printed under head μM NO release) (Microglial cells; [9]): 0.136 | μM NO release (Microglial cells; [9]): 13.125 µM | Avg % Inhibition (Microglial cells; dose 200 μM, 48 hours): 69.211%
